In data set [1] the target is T1, sEH in AR42j cells (Rattus norvegicus, UniProt P80299).
T1 sequence (P80299 1-554): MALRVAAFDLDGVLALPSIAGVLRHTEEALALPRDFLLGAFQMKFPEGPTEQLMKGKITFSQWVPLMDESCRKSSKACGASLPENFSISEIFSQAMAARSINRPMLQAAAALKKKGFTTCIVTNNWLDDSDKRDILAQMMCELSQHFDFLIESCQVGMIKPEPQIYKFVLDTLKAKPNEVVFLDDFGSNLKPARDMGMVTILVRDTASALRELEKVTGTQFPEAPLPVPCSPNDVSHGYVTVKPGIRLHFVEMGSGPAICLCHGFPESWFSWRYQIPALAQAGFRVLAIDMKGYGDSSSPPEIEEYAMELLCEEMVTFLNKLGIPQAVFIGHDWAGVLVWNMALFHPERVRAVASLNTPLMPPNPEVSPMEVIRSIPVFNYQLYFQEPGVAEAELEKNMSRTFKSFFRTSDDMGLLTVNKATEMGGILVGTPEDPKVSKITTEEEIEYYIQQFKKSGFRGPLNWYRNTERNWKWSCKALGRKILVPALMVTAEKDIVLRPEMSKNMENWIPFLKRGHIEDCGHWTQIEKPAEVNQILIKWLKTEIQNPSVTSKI
Put plainly: In vitro determination of sEH inhibition activity in AR42j cells (cell-based fluorescent assay). The settings on record: AR-42J, read-out: % Inhn. ± SE (100 μM), sEH inhibition activity in cell culture.
Description: Solutions Preparation: • Assay buffer 1×: add 10 mL of the CBA-Buffer (10×) to 90 mL of distilled water. • Lysis Buffer: add 50 μL of the CBA Digitonin Solution to 10 mL of Buffer Assay 1×. • Substrate Solution: dilute 10 μL of CBA sEH Substrate with 10 mL of Assay Buffer 1×. • Standards: preparation of 7 concentrations of CBA 6-methoxy-2-naphtalaldehyde from 0 until 2 M with Assay Buffer 1×. • sEH Positive Control: Prepare another stock A (1 μg/ml: 1 μL CBA sEH Positive Control+1 mL Assay Buffer 1×). From the already prepared stock A, prepare 250 μL of sEH (10 ng/mL): 2.5 μL sEH stock A+250 μL Assay Buffer 1×). • sEH Inhibitor AUDA: dilute 10 μL CBA sEH Inhibitor with 500 ml Assay Buffer 1×. • Inhibitors dissolved in DMSO at appropriated concentrations.
Seed cells in a 96-well plate at a density of (2×10^4)-(5×10^4) cells/well in 100 μL of culture medium with or without compounds to be tested. Incubation of the cells in a CO2 incubator at 37° C. for 48 hours. Aspirate the culture medium and add 200 μL of Assay Buffer 1× to each well. Centrifuge the plate at 800 rmp for 5 minutes. Aspirate the supernatant and add 100 μL of Lysis Buffer to each well. Incubate with gentle shaking on an orbital shaker for 30 minutes at room temperature. Centrifuge the plate at 3000 rpm for 20 minutes at 4° C. Transfer 90 μL of the supernatants to the 96-Well Solid Plate (black). Add 10 μL Assay Buffer 1× or 10 μL of the AUDA solution to appropriate wells. For positive control wells, add 100 μL of the 10 ng/mL sEH Positive Control to two wells. Add 200 μL of 6-methoxy-2-Naphthaldehyde Standards to corresponding wells of the black plate. Add 100 μL of the sEH Substrate Solution to each well, except the standards. Incubate the plate at 37° C. for 30 minutes. […] The intensity of fluorescence was used to analyze and calculate inhibition percentages, shown in the Table as average of minimum three independent replicates.

Data set [2] relates to Huh-7 cells. Description: Amelioration of palmitate-induced ER stress: ATF3, BiP and CHOP mRNA by real-time PCR. Format: cell-based. The settings on record: palmitate 0.5 mM + inhibitor 1 μM, 48 h. The protocol:
Huh-7 cells were maintained in a humid atmosphere of 5% CO2 at 37° C. in high glucose (25 mM) Dulbecco's modified Eagle's medium supplemented with 10% heat-inactivated fetal bovine serum, 1% of penicillin/streptomycin (10.000 units/mL of penicillin and 10.000 μg/mL of streptomycin) and 1% of amphotericin B (250 μg/mL).
Huh-7 cells were serum-starved overnight prior treatment. […] For RNA extraction, cells were pre-treated with the inhibitors (final concentration 1 μM) for 1 hour before treatment with palmitate (final concentration 0.5 mM) and inhibitors (final concentration 1 μM). For each condition, at least 3 replicates were performed. Following 48 hours of incubation, RNA were extracted as described below.
Total RNA in hepatocytes was harvested by TRIsure (Bioline) according to the manufacturer's instructions. The extracted RNA was dissolved in RNase-free water and concentrations of total RNA were quantified using a NanoDrop 2000c spectrophotometer (Thermo Scientific). First-stranded cDNA was synthesized from 0.5 μg total RNA (Life Technologies). […] The PCR reaction contained 10 ng of reverse-transcribed RNA, 2× IQ™ SYBRGreen Supermix (BioRad, Barcelona, Spain) and 900 nmol/L concentration of each primer. Optical primer amplification efficiency for each primer set was assessed and a dissociation protocol was carried out to assure a single PCR product. PCR assays were performed on a MiniOpticon™ Real-Time PCR system (BioRad). Thermal cycling conditions were as follows: activation of Taq DNA polymerase at 95° C. for 10 min, followed by 40 cycles of amplification at 95° C. for 15 sec and 60° C. for 1 min. The relative levels of specific mRNA were estimated from the value of the threshold cycle (Ct) of the real-time PCR adjusted by that of a housekeeping gene (GAPDH) through the formula […] (ΔCt=Gene of interest Ct-GAPDH Ct). Cf.
On the technique in general: Quantitative PCR measures a nucleic acid by following its amplification.

Data set [3] addresses CYP2C19 (Homo sapiens, UniProt P33261). Description: Inhibition of human cytochrome P450 CYP2C19. Format: in vitro ADME. The note with it: human cytochrome P450 enzyme. The source says: The epoxidation of arachidonic acid (AA) by selected cytochrome P450 epoxygenases generates epoxyeicosatrienoic acids (EETs). These EETs show anti-inflammatory, antihypertensive, analgesic, angiogenic, and antiatherosclerotic effects in rodents and humans. sEH converts EETs to their corresponding dihydroxyeicosatrienoic acids (DHETs), whereby the biological effects of EETs are diminished, eliminated, or altered. Among the P450 enzymes, it is known that CYP2C19 and CYP1A2 have the highest formation rate of EETs from AA (cf. A. A. El-Sherbeni et al. “Repurposing resveratrol and fluconazole to modulate human cytrochrome P450-mediated arachidonic acid metabolites”, Molecular Pharmaceutics 2016, vol. 13, pp. 1278-1288). For this reason, a highly desirable aspect of any new sEH inhibitor is selectivity in front of CYP2C19 and CYP1A2.

Data set [4] in a line: Parallel artificial membrane permeation assay for blood-brain barrier (PAMPA-BBB). Type of data set: in vitro ADME, porcine. The note with it: PBS:EtOH (70:30). The protocol: The in vitro permeability (Pe) of the test compounds through lipid extract of porcine brain membrane was determined. Assayed compounds were tested using a mixture of PBS:EtOH (70:30). […] From this equation and taking into account the limits established by Di et al. for BBB permeation, the ranges of permeability were established, as follows.
In general terms: In PAMPA a lipid-coated filter parts donor from acceptor wells.

Data set [5] in a line: Determination of water solubility (nephelometry). Type of data set: physicochemical. The note with it: aqueous with cosolvent or surfactant or cyclodextrin, kinetic from dmso stock; 5% DMSO: 95% PBS buffer, 37° C., read after 2 and 4 h; read-out: S (solubility).

The values below come from US20200079786A1, “ANALOGS OF […] AS SOLUBLE EPOXIDE HYDROLASE INHIBITORS” (UNIVERSITAT DE BARCELONA, priority 2015, published 2020).

Chain of CYP2C19 (P33261 whole entry): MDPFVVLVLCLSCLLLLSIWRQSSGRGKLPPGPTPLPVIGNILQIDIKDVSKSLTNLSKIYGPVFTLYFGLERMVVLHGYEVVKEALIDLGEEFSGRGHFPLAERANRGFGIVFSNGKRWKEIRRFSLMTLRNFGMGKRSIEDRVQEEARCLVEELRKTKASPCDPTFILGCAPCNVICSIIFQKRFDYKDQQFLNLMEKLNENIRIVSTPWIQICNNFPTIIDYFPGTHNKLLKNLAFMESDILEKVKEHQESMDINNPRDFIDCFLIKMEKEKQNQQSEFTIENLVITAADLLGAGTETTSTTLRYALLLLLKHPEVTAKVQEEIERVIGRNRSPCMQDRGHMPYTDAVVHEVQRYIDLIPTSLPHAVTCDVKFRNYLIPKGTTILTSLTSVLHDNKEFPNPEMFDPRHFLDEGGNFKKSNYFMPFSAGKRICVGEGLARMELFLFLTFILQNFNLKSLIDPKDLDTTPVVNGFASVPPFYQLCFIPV

The term inhibition denotes the drop in the measured response relative to a control, in per cent. The solubility is the dissolved amount per volume that the medium holds. For the compound `O=C(N[C@]12CC3C[C@@H](C[C@H](C3)O1)C2)N[C@H]1CC[C@H](Oc2ccc(C(=O)O)cc2)CC1` [Ig, trans-1-(2-oxaadamantan-1-yl)-3-[4-(4-carboxyphenoxy)cyclohexyl]urea], the inhibition at 100 µM in data set [1] amounted to 58.3 ± 3.2%. In addition, the “Level of CHOP mRNA” value in data set [2] (control (CT) = 100.0, PAL alone 224.5) is 147.6 ± 15.9^(##). For the same compound, in data set [2] (control (CT) = 100.0, PAL alone 242.9), the “Level of BiP mRNA” value was 174.9 ± 31.4^(#). Also, the “Level of ATF3 mRNA” value in data set [2] (control (CT) = 100.0, PAL alone 585.5) is recorded as 286.7 ± 59.9^(###). The compound also displayed an inhibition at 1 µM in data set [3] of no more than 6%. Moreover, in data set [4], the CNS prediction result is given as “CNS+ (Compounds of high BBB permeation (CNS+): Pe (10^6 cm s^−1)>5.181)”. Moreover, the solubility in data set [5] was greater than 100 µM.
